Here are results for 18 molecules from EP0734259B1, “Use of piperidine compounds in the treatment of schizophrenia” (NOVO NORDISK A/S, priority 1993, dated 1995).

For one test, the target named is muscarinic receptors. The test can be described thus: ^3H-oxotremorine-M binding assay (inhibition of binding to cerebral cortical membranes). As to conditions: 3 nM ^3H-oxotremorine-M, rat cerebral cortical membranes, 15 minutes at 25°C, read-out: Inhibition of ^3H-Oxo. The protocol: The affinity of the compounds for the muscarinic receptors was determined using the non-selective agonist ligand, ^3H-oxotremorine-M. Birdsdall N.J.M., Hulme E.C., and Burgen A.S.V., "The Character of Muscarinic Receptors in Different Regions of the Rat Brain", 207 Proc. Roy. Soc. 1 (London, Series B, 1980). Each compound was tested to determine the affinity of the compound for the muscarinic receptors using the following procedure.
For each in vitro binding, male Sprague-Dawley (Harlan Sprague-Dawley, Indianapolis, IN) rats weighing from about 100 to about 150 grams each were sacrificed by decapitation. The brains were quickly removed and the cerebral cortex were dissected from the brain. The cerebral cortex tissue was homogenized in 10 volumes of 0.32 M sucrose and […] at about 1000 x g. The supernatant was centrifuged at about 12,000 x g for about 10 minutes and the resulting pellet was resuspended in 20 mM tris-CI, pH 7.4. The resuspended pellet was centrifuged again for about 10 minutes at about 50,000 x g. The resulting homogenate was preincubated for about 10 minutes at about 25°C and centrifuged again for about 10 minutes at about 50,000 x g. The pellet was resuspended at 1 gram of pellet per 3 ml of buffer and frozen at about -80°C until used.
The aforementioned homogenates mixture was incubated for about 15 minutes at about 25°C and then the homogenates were filtered through glass filters (Whatman, GF/C) with vacuum. The filters were washed 3 times with about 2 ml of cold tris-CI buffer, and placed in scintillation vials containing about 10 ml of scintillation fluid (Ready Protein+, Beckman, Fullerton, CA). Radioactivity trapped on the filters was determined by liquid scintillation spectrometry. Nonspecific binding was determined using 1 µM atropine. […] DeLean, A. et al. Am. J. Physiol., 235, (1978).

The subject of the next test is rats. In words: Conditioned avoidance behavior in rats. The format is in vivo, rat. Conditions: 3.0 mg/kg s.c. 30 min before the session, active if % avoidance reduced to at least 50%. An excerpt: In a conditioned avoidance test, animals learn to respond during a conditioned stimulus in order to avoid mild shock presentation. A response during the conditioned stimulus is termed an avoidance respone, a response during shock is termed an escape response; a response failure is when the animal fails to respond during either the conditioned stimlus or the shock presentation and is indicative of motor impairment. Animals rapidly learn to avoid 99% of the time. Antipsychotic drugs decrease the percentage of avoidance responses without interfering with the ability of the animal to respond since the animals do emit escape responses. The percentage of response failures is considered a measure of motor impairment.
Rats were required to press a response lever in an experimental chamber in order to avoid or escape foot-shock. Each experimental session consisted of 50 trials. During each trial, the chamber was illuminated and a tone presented for a maximum of 10 sec. A response during the tone immediately terminated the tone and the houselight, ending the trial. In the absence of a response during the tone alone, tone+foot-shock (2.0 mA) was presented for a maximum of 10 sec. A response during shock presentation immediately terminated the shock, the tone and the houselight, ending the trial.
For drug screening, a dose of 3.0 mg/kg was administered s.c. 30 min before the start of the experimental session. A drug was considered active if it reduced the % avoidance responding to at least 50% without producing greater than 50% response failures. For active drugs, a dose-response curve was subsequently determined.

Molecules are shown by their SMILES. Where a name gives a salt, the structure may show the parent alone.

As for `Cl.FC(F)(F)CSc1nsnc1C1=CCCNC1` [Compound 222, 3-(3-(2,2,2-Trifluoroethylthio)-1,2,5-thiadiazol-4-yl)-1,2,5,6-tetrahydropyridine hydrochloride], the IC50 at muscarinic receptors was found to be 0.42 nM. Besides, in the test on rats, the “Conditioned Avoidance % Avoidance Responses” value is 0%.

As for `CN1CCC=C(c2nsnc2SCCSc2cccs2)C1` [Compound 228, 3-(3-(2-(2-Thienylthio)ethylthio))-1,2,5-thiadiazol-4-yl)-1,2,5,6-tetrahydro-1-methylpyridine oxalate], the IC50 at muscarinic receptors stood at 0.6 nM. The “Conditioned Avoidance % Avoidance Responses” value in the test on rats came to 92%.

Turning to `CSc1nsnc1C1=CCCN(C)C1.O=C(O)C(=O)O` [Compound 49, 3-(3-Methylthio-1,2,5-thiadiazol-4-yl)-1,2,5,6-tetrahydro-1-methylpyridine oxalate], at muscarinic receptors, the IC50 came to 2.3 nM. Also, the “Conditioned Avoidance % Avoidance Responses” value in the test on rats was determined as 37%.

Take `CCCCCCSc1nsnc1C1=CCCNC1` [Compound 220, 3-(3-Hexylthio-1,2,5-thiadiazol-4-yl-1,2,5,6-tetrahydropyridine oxalate]: the IC50 on muscarinic receptors was 3 nM. The “Conditioned Avoidance % Avoidance Responses” value with rats is on record as 88%.

In the case of `CCCCSc1nsnc1C1=CCCNC1.O=C(O)C(=O)O` [Compound 218, 3-(3-Butylthio-1,2,5-thiadiazol-4-yl)-1,2,5,6-tetrahydropyridine oxalate], the IC50 on muscarinic receptors was 3.5 nM. For the same molecule, the “Conditioned Avoidance % Avoidance Responses” value in the test with rats is 39%.

Take `CCCSc1nsnc1C1=CCCN(C)C1.O=C(O)C(=O)O` [Compound 47, 3-(3-Propylthio-1,2,5-thiadiazol-4-yl)-1,2,5,6-tetrahydro-1-methylpyridine oxalate]: the IC50 on muscarinic receptors came out at 0.9 nM. In the test with rats, the “Conditioned Avoidance % Avoidance Responses” value is 49%.

As to `CCCOc1nsnc1C1=CCCN(C)C1.O=C(O)C(=O)O` [Compound 3, 1,2,5,6-Tetrahydro-1-methyl-3-(3-propoxy-1,2,5-thiadiazol-4-yl)pyridine oxalate], the IC50 on muscarinic receptors came to 1.6 nM. Moreover, the “Conditioned Avoidance % Avoidance Responses” value with rats is on record as 71%.

In the case of `CCOc1nsnc1C1=CCCNC1.Cl` [Compound 215, 3-(3-Ethoxy-1,2,5-thiadiazol-4-yl)-1,2,5,6-tetrahydropyridine hydrochloride], the IC50 at muscarinic receptors came to 10.5 nM. Further, the “Conditioned Avoidance % Avoidance Responses” value in the test with rats came out at 61%.

Consider `CCCCOc1nsnc1C1=CCCN(C)C1.O=C(O)C(=O)O` [Compound 4, 3-(3-Butoxy-1,2,5-thiadiazol-4-yl)-1,2,5,6-tetrahydro-1-methylpyridine oxalate], for which the IC50 at muscarinic receptors came out at 2 nM. Further, the “Conditioned Avoidance % Avoidance Responses” value in the test with rats is given as 74%.

Turning to `COc1nsnc1C1=CCCN(C)C1.O=C(O)C(=O)O` [Compound 1, 1,2,5,6-Tetrahydro-3-(3-methoxy-1,2,5-thiadiazol-4-yl)-1-methylpyridine oxalate], the IC50 at muscarinic receptors is 22 nM. Moreover, the “Conditioned Avoidance % Avoidance Responses” value in the test on rats came out at 97%.

Take `CCCCCSc1nsnc1C1=CCCN(C)C1.O=C(O)C(=O)O` [Compound 66, 3-(3-Pentylthio-1,2,5-thiadiazol-4-yl)-1,2,5,6-tetrahydro-1-methylpyridine oxalate]: the IC50 on muscarinic receptors was 4.8 nM. Further, the “Conditioned Avoidance % Avoidance Responses” value in the test on rats was 87%.

Consider `Cl.FC(F)(F)COc1nsnc1C1=CCCNC1` [Compound 223, 3-(3-(2,2,2-Trifluoroethoxy)-1,2,5-thiadiazol-4-yl)-1,2,5,6-tetrahydropyridine hydrochloride], for which the IC50 at muscarinic receptors was found to be 7.4 nM. In addition, the “Conditioned Avoidance % Avoidance Responses” value in the test with rats is reported as 31%.

With `CCSc1nsnc1C1=CCCN(C)C1.O=C(O)C(=O)O` [Compound 65, 3-(3-Ethylthio-1,2,5-thiadiazol-4-yl)-1,2,5,6-tetrahydro-1-methylpyridine oxalate], on muscarinic receptors, the IC50 came to 1.9 nM. The “Conditioned Avoidance % Avoidance Responses” value in the test with rats is on record as 69%.

For `CCCCSc1nsnc1C1=CCCN(C)C1.O=C(O)C(=O)O` [Compound 48, 3-(3-Butylthio-1,2,5-thiadiazol-4-yl)-1,2,5,6-tetrahydro-1-methylpyridine oxalate], the IC50 at muscarinic receptors came out at 1.7 nM. The “Conditioned Avoidance % Avoidance Responses” value in the test on rats came out at 57%.

For `CCOc1nsnc1C1=CCCN(C)C1.O=C(O)C(=O)O` [Compound 2, 3-(3-Ethoxy-1,2,5-thiadiazol-4-yl)-1,2,5,6-tetrahydro-1-methylpyridine oxalate], the IC50 on muscarinic receptors was 5.7 nM. Also, in the test on rats, the “Conditioned Avoidance % Avoidance Responses” value came to 70%.

For the molecule `CCCCCSc1nsnc1C1=CCCNC1.O=C(O)C(=O)O` [Compound 219, 3-(3-Pentylthio-1,2,5-thiadiazol-4-yl)-1,2,5,6-tetrahydropyridine oxalate], on muscarinic receptors, the IC50 stood at 5.8 nM. Besides, the “Conditioned Avoidance % Avoidance Responses” value in the test on rats was found to be 79%.

For `CCCSc1nsnc1C1=CCCNC1.O=C(O)C(=O)O` [Compound 217, 3-(3-Propylthio-1,2,5-thiadiazol-4-yl)-1,2,5,6-tetrahydropyridine oxalate], the IC50 on muscarinic receptors came out at 1.2 nM. The “Conditioned Avoidance % Avoidance Responses” value in the test with rats came to 30%.

Take `CCSc1nsnc1C1=CCCNC1.Cl` [Compound 216, 3-(3-Ethylthio-1,2,5-thiadiazol-4-yl)-1,2,5,6-tetrahydropyridine hydrochloride]: the IC50 at muscarinic receptors came out at 6.5 nM. In addition, the “Conditioned Avoidance % Avoidance Responses” value in the test with rats is recorded as 12%.
